Measured values reported in patent US9895369B2, “Stable and soluble formulations of receptor tyrosine kinase inhibitors, and methods of preparation thereof” (ForSight Vision4, Inc., priority 2014, dated 2018).

Legend:
[1] = pH comparison of pazopanib/CAPTISOL solutions with similar composition; assay type: physicochemical; settings: about 22.4 mg pazopanib salt + about 157 mg CAPTISOL (1.5x molar ratio to drug) in 1 mL water
From the text: From the results of the pH and the chloride content analysis it is concluded that the pharmaceutical ingredient from sample-1 contains 2-HCl per each pazopanib molecule, compared to active from sample-2, which contains only 1 HCl/per drug molecule.

[2] = Precipitation during ambient (room temperature) storage of the formulation; assay type: physicochemical; settings: high drug concentration; crystallized out during storage and during drug release

| Structure (SMILES) | pH, measured [1] | Stability of high concentration formulations (on shelf and upon dilution) [2] |
| --- | --- | --- |
| Cc1ccc(Nc2nccc(N(C)c3ccc4c(C)n(C)nc4c3)n2)cc1S(N)(=O)=O [Pazopanib-Sample 1, 5-[[4-[(2,3-Dimethyl-2H-indazol-6-yl)methylamino]-2-pyrimidinyl]amino]-2-methylbenzolsulfonamide] | 1.68 | – |
| Cc1ccc(Nc2nccc(N(C)c3ccc4c(C)n(C)nc4c3)n2)cc1S(N)(=O)=O [Pazopanib-Sample 2 (1HCl), 5-[[4-[(2,3-Dimethyl-2H-indazol-6-yl)methylamino]-2-pyrimidinyl]amino]-2-methylbenzolsulfonamide] | 3.36 | very unstable |
| Cc1ccc(Nc2nccc(N(C)c3ccc4c(C)n(C)nc4c3)n2)cc1S(N)(=O)=O [Pazopanib-Sample 2-lyophilized-TFE (1HCl)] [5-[[4-[(2,3-Dimethyl-2H-indazol-6-yl)methylamino]-2-pyrimidinyl]amino]-2-methylbenzolsulfonamide] | 3.34 | – |
